# In patent publication US20190315771A1, “NOVEL 2-ACYLAMINOTHIAZOLE DERIVATIVE AND PREPARATION METHOD THEREFOR AND USE THEREOF” (SICHUAN KELUN-BIOTECH BIOPHARMACEUTICAL CO., LTD., priority 2016, published 2019):
# Key:
# [1] = biological target: T1, human TPOR (Homo sapiens, UniProt P40238); test: Proliferation of BAF3/TPOR cells (MTS method, OD490); format: cell-based, mouse; conditions: BAF3 cells stably expressing human TPOR, cultured with compound 24 h
# T1 construct: expressed in transfected cells; host or cells: mouse BAF3 cells
# T1 sequence (P40238 26-635): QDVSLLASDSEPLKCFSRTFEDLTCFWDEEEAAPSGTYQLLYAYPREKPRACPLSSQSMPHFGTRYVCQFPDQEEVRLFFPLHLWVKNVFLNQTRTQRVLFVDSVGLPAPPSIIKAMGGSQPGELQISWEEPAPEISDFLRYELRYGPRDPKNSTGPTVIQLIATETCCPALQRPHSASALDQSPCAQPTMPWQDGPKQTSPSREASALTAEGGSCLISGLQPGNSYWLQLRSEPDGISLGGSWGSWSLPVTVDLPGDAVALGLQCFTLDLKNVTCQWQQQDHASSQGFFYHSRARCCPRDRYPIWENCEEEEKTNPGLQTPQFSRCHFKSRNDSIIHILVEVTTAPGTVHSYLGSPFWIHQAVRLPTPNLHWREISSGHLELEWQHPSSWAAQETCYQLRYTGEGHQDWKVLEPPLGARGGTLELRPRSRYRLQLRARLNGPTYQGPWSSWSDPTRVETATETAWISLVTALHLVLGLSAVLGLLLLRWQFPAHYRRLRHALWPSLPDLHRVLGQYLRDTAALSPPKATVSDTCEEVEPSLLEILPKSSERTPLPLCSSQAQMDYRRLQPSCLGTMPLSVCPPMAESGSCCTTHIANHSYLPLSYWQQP
# Text: The TPO mimetic compound was synthesized in vitro, and the compound acted on the TPO receptor (TPOR) on the cell to stimulate cell proliferation and differentiation. The OD490 value was detected by the MTS method, and the more the number of cells, the larger the OD value, thereby detecting the response of the compound to cell proliferation and differentiation. The agonist concentration at which the increased signal arrived at the highest level was Emax, and the concentration of the compound at which the increased signal arrived at 50% of the signal of Emax was EC50. The activity of the compound was determinable by EC50, and the smaller the EC50, the higher the activity of the compound.
# Mouse […] BAF3 stably expressing human TPOR were cultured in 1640 medium containing 10% FBS. On the day of the assay, the cells were counted and seeded in a 96-well plate at 1×10^4 cells/50 μL. 50 μL of different concentrations of the tested compound were added to the wells to a final concentration of 10000 nM, 3000 nM, 300 nM, 30 nM, 3 nM, 0.3 nM, 0.03 nM, 0.003 nM, 0.0003 nM, and the final concentration of DMSO was 1%. After the cells were cultured with the compound for 24 h at 37° C. in a 5% CO2 incubator, 10 μL of detection reagent (Promega, Cell Titer 96® Aqueous One Solution) was added. After mixing, the resulting mixture was incubated for 3 h in the incubator. The OD 490 was detected using a multifunctional automatic microplate reader, and the EC50 was fitted using GraphPad Prism 5 software.
# [2] = biological target: hERG potassium channel (Homo sapiens, UniProt Q12809); test: hERG test, electrophysiological manual patch clamp; format: cell-based; conditions: for hERG potassium channel inhibition (judgement in words): conclusion from Table 2; for IC50: manual patch clamp, IC50 >10 μM judged as no inhibitory effect on hERG
# Text: In cardiomyocytes, the potassium channel encoded by hERG (human Ether-a-go-go Related Gene) mediated the delayed rectifier potassium current (lKr). The IKr inhibition was the most important mechanism for drug-induced QT prolongation and induction of arrhythmia.
# The electrophysiological manual patch clamp was used to detect the effect of the tested compound on the hERG potassium channel.
# Sequence of hERG potassium channel (Q12809 whole entry): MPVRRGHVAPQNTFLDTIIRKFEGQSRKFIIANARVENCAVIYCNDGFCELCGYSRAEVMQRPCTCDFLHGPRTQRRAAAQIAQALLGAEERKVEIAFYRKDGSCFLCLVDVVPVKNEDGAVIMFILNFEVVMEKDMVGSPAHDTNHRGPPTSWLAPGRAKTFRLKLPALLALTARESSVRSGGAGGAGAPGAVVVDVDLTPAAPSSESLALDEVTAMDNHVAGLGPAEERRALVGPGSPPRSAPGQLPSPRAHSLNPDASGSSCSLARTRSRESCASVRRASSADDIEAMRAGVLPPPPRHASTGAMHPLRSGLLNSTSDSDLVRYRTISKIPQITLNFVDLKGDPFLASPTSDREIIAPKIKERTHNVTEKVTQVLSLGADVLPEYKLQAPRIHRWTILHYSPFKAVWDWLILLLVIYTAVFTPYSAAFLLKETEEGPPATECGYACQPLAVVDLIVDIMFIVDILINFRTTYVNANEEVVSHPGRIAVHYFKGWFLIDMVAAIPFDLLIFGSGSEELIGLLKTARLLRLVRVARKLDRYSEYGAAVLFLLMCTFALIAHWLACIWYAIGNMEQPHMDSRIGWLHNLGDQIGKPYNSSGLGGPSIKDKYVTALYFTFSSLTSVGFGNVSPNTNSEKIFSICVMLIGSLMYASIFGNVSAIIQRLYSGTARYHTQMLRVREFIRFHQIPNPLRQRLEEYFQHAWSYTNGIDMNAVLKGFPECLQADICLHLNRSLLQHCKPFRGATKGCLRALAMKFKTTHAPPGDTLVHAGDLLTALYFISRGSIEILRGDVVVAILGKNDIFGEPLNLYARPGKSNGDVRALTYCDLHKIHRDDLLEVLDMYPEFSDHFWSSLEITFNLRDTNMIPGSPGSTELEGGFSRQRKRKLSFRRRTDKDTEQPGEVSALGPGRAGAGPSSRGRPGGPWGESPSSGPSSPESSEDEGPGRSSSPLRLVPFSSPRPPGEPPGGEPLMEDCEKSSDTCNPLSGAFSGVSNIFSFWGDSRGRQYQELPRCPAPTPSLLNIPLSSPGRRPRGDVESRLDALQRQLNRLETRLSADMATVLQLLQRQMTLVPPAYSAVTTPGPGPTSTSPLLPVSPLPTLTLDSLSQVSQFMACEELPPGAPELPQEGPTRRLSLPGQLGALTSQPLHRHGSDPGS
EC50 [1] [nM],SMILES,hERG potassium channel inhibition (judgement in words) [2],IC50 [2] [nM]
0.05,"C/C(=C\c1c(Cl)cc(C(=O)Nc2nc(-c3cc(Cl)cs3)c(N3C[C@H]4CCN(C5[C@H]6C[C@@H]7C[C@@H](C[C@H]5C7)C6)[C@H]4C3)s2)cc1Cl)C(=O)O (stereo partly drawn) [Example 51, (E)-3-(4-((5-((3aR,6aR)-1-((1R,3R,5R,7R)-adamantan-2-yl)hexahydropyrrolo[3,4-b]pyrrol-5(1H)-yl)-4-(4-chlorothiophen-2-yl)thiazol-2-yl)carbamoyl)-2,6-dichlorophenyl)-2-methylacrylic acid]",no hERG inhibition,> 30000
0.13,"C/C(=C\c1c(Cl)cc(C(=O)Nc2nc(-c3cc(Cl)cs3)c(N3C[C@@H]4CCN(C5[C@H]6C[C@@H]7C[C@@H](C[C@H]5C7)C6)[C@@H]4C3)s2)cc1Cl)C(=O)O (stereo partly drawn) [Example 52, (E)-3-(4-((5-((3aS,6aS)-1-((1S,3S,5S,7S)-adamantan-2-yl)hexahydropyrrolo[3,4-b]pyrrol-5(1H)-yl)-4-(4-chlorothiophen-2-yl)thiazol-2-yl)carbamoyl)-2,6-dichlorophenyl)-2-methylacrylic acid]",,7900
0.08,"C/C(=C\c1c(Cl)cc(C(=O)Nc2nc(-c3cc(Cl)cs3)c(N3CC4CCN(C5[C@H]6C[C@@H]7C[C@@H](C[C@H]5C7)C6)C4C3)s2)cc1Cl)C(=O)O (stereo partly drawn) [Example 46, (E)-3-(4-((5-(1-((1R,3R,5R,7R)-adamantan-2-yl)hexahydropyrrolo[3,4-b]pyrrol-5(1H)-yl)-4-(4-chlorothiophen-2-yl)thiazol-2-yl)carbamoyl)-2,6-dichlorophenyl)-2-methylacrylic acid]",,
0.59,"C/C(=C\c1c(Cl)cc(C(=O)Nc2nc(-c3cc(Cl)cs3)c(N3CC4CCN(C5C[C@H]6CC[C@@H]5C6)C4C3)s2)cc1Cl)C(=O)O (some centres unmarked) [Example 45, (E)-3-(4-((5-(1-(bicyclo[2.2.1]hept-2-yl)-hexahydropyrrolo[3,4-b]pyrrol-5(1H)-yl)-4-(4-chlorothiophen-2-yl)-thiazol-2-yl)-carbamoyl)-2,6-dichlorophenyl)-2-methylacrylic acid]",,
0.6,C/C(=C\c1c(Cl)cc(C(=O)Nc2nc(-c3cc(Cl)cs3)c(N3CCC4C(CCN4C4CCCCC4)C3)s2)cc1Cl)C(=O)O (centres unmarked) [Example 48],,
0.43,"C/C(=C\c1c(Cl)cc(C(=O)Nc2nc(-c3cc(Cl)cs3)c(N3CC4CCN(C5CC(F)(F)C5)C4C3)s2)cc1Cl)C(=O)O (centres unmarked) [Example 38, (E)-3-(4-((5-(1-(3,3-difluorocyclobutyl)-hexahydropyrrolo[3,4-b]pyrrol-5(1H)-yl)-4-(4-chlorothiophen-2-yl)-thiazol-2-yl)-carbamoyl)-2,6-dichlorophenyl)-2-methylacrylic acid]",,
0.07,"C/C(=C\c1c(Cl)cc(C(=O)Nc2nc(-c3cc(Cl)cs3)c(N3CC4CCN(C5CCCC5)C4C3)s2)cc1Cl)C(=O)O (centres unmarked) [Example 40, (E)-3-(2,6-dichloro-4-((4-(4-chlorothiophen-2-yl)-5-(1-cyclopentyl-hexahydropyrrolo[3,4-b]pyrrol-5(1H)-yl)-thiazol-2-yl)-carbamoyl)-phenyl)-2-methylacrylic acid]",,
0.13,"C/C(=C\c1c(Cl)cc(C(=O)Nc2nc(-c3cc(Cl)cs3)c(N3CC4CCN(C5CCCCCC5)C4C3)s2)cc1Cl)C(=O)O (centres unmarked) [Example 44, (E)-3-(4-((5-(1-cycloheptyl-hexahydropyrrolo[3,4-b]pyrrol-5(1H)-yl)-4-(4-chlorothiophen-2-yl)-thiazol-2-yl)-carbamoyl)-2,6-dichlorophenyl)-2-methylacrylic acid]",,

# Second part, the compound before the results:
SMILES,EC50 [1] [nM],hERG potassium channel inhibition (judgement in words) [2],IC50 [2] [nM]
"O=C(Nc1nc(-c2cc(Cl)cs2)c(N2CC3CCC2CN3C2CCCCC2)s1)c1cnc(N2CCC(C(=O)O)CC2)c(Cl)c1 (centres unmarked) [Example 29, 3′-chloro-5′-(4-(4-chlorothiophen-2-yl)-5-(5-cyclohexyl-2,5-diazabicyclo[2.2.2]octan-2-yl)-thiazol-2-carbamoyl)-3,4,5,6-tetrahydro-2H-[1,2′]bipyridine-4-carboxylic acid]",0.89,,
"O=C(Nc1nc(-c2cc(Cl)cs2)c(N2CC3CCN(C4C[C@H]5CC[C@@H]4C5)C3C2)s1)c1cnc(N2CCC(C(=O)O)CC2)c(Cl)c1 (stereo in doubt) [Example 9, 1-[3-chloro-5-((4-(4-chlorothiophen-2-yl)-5-(1-(bicyclo[2.2.1]hept-2-yl)-hexahydropyrrolo[3,4-b]pyrrol-5(1H)-yl)thiazol-2-yl)carbamoyl)pyridin-2-yl]piperidine-4-carboxylic acid]",0.21,,
"C/C(=C\c1c(Cl)cc(C(=O)Nc2nc(-c3cc(Cl)cs3)c(N3CC4CCN(C5CCCCC5)C4C3)s2)cc1Cl)C(=O)O (centres unmarked) [Example 36, (E)-3-(2,6-dichloro-4-((4-(4-chlorothiophen-2-yl)-5-(1-cyclohexyl-hexahydropyrrolo[3,4-b]pyrrol-5(1H)-yl)-thiazol-2-yl)-carbamoyl)-phenyl)-2-methylacrylic acid]",0.1,,
"O=C(Nc1nc(-c2cc(Cl)cs2)c(N2CC3CCN(C4CCCCCC4)C3C2)s1)c1cnc(N2CCC(C(=O)O)CC2)c(Cl)c1 (centres unmarked) [Example 8, 1-(3-chloro-5-((4-(4-chlorothiophen-2-yl)-5-(1-cycloheptyl-hexahydropyrrolo[3,4-b]pyrrol-5(1H)-yl)-thiazol-2-yl)-carbamoyl)-pyridin-2-yl)-piperidine-4-carboxylic acid]",1.11,,
"CCCCCCO[C@@H](C)c1cccc(-c2csc(NC(=O)c3cc(Cl)c(/C=C(\C)C(=O)O)c(Cl)c3)n2)c1OC [Lusutrombopag, reference compound]",1.93,significant cardiac hERG potassium channel inhibition,2370
"C/C(=C\c1c(Cl)cc(C(=O)Nc2nc(-c3cccc(C(F)(F)F)c3)c(N3CC4CCN(C5CCCCC5)C4C3)s2)cc1Cl)C(=O)O (centres unmarked) [Example 35, (E)-3-(2,6-dichloro-4-(5-(1-cyclohexyl-hexahydropyrrolo[3,4-b]pyrrol-5-yl)-4-(3-trifluoromethylphenyl)-thiazol-2-carbamoyl)-phenyl)-2-methyl-acrylic acid]",0.57,,
"O=C(Nc1nc(-c2cc(Cl)cs2)c(N2CC3CCN(C4CCCCC4)C3C2)s1)c1cnc(N2CCC(C(=O)O)CC2)c(Cl)c1 (centres unmarked) [Example 5, 1-(3-chloro-5-((4-(4-chlorothiophen-2-yl)-5-(1-cyclohexyl-hexahydropyrrolo[3,4-b]pyrrol-5(1H)-yl)-thiazol-2-yl)-carbamoyl)-pyridin-2-yl)-piperidine-4-carboxylic acid]",0.08,,
"C/C(=C\c1c(Cl)cc(C(=O)Nc2nc(-c3cc(Cl)cs3)c(N3CC4CCN(C5CCC5)C4C3)s2)cc1Cl)C(=O)O (centres unmarked) [Example 37, (E)-3-(2,6-dichloro-4-((4-(4-chlorothiophen-2-yl)-5-(1-cyclobutyl-hexahydropyrrolo[3,4-b]pyrrol-5(1H)-yl)-thiazol-2-yl)-carbamoyl)-phenyl)-2-methylacrylic acid]",0.34,,
"O=C(Nc1nc(-c2cc(Cl)cs2)c(N2CC3CCN(C4[C@H]5C[C@@H]6C[C@@H](C[C@H]4C6)C5)C3C2)s1)c1cnc(N2CCC(C(=O)O)CC2)c(Cl)c1 (stereo partly drawn) [Example 10, 1-(3-chloro-5-((4-(4-chlorothiophen-2-yl)-5-(1-(1R,3R,5R,7R)-adamantanyl-hexahydropyrrolo[3,4-b]pyrrol-5(1H)-yl)-thiazol-2-yl)carbamoyl)-pyridin-2-yl)-piperidine-4-carboxylic acid]",0.1,,
"O=C(Nc1nc(-c2cc(Cl)cs2)c(N2CC3CCN(C4CCC4)C3C2)s1)c1cnc(N2CCC(C(=O)O)CC2)c(Cl)c1 (centres unmarked) [Example 2, 1-(3-chloro-5-((4-(4-chlorothiophen-2-yl)-5-(1-cyclobutyl-hexahydropyrrolo[3,4-b]-pyrrol-5(1H)-yl)-thiazol-2-yl)-carbamoyl)-pyridin-2-yl)-piperidine-4-carboxylic acid]",0.21,,
